Key:
[1] = test system: Healthy subjects, ages 13-18; test: Finger Tap Test (motor speed and control); assay type: in vivo, human; conditions: for V3-V1 Finger Tap Test Mean Dominant Hand, Mean / V3-V1 Finger Tap Test Mean Non-Dominant Hand, Mean: Visit difference score; for Finger Tap Test Mean Dominant Hand V3, Mean / Finger Tap Test Mean Non-Dominant Hand V3, Mean: Visit 3; for Finger Tap Test Mean Dominant Hand, Mean / Finger Tap Test Mean Non-Dominant Hand, Mean: 250 mg/day
Description: The citicoline-treated group (N=51) were administered 250 mg/day (N=24) or 500 mg/day (N=27). Three finger tap tests were administered over a period of 28 days to measure motor speed and control. Results are expressed as mean ± SD. Statistical analysis was performed using Student’s t test. The p<0.05 was considered statistically significant. Study participants were screened by telephone prior to study enrollment. Healthy subjects, ages 13-18, with no significant medical conditions and no history of co-morbid psychiatric disorder, current Axis I or II diagnosis, or previous participation in a pharmacotherapeutic trial, were selected. Use of any psychotropic medication or any previous head injury resulting in loss of consciousness for 5 or more minutes were used as exclusion criteria. While no participant met criteria for a neuropsychiatric disorder at enrollment, clinical assessments were still completed throughout the study to evaluate changes in mood state. In addition, self-reports of sleep habits, lifestyle, and exercise routines were also administered at baseline as well as at each study visit to assess changes in health habits during study participation. Following the completion of Visit 1 assessment, participants were given their 28-day supply of citicoline (250 mg or 500 mg) or placebo, which was randomly assigned. They were instructed to take one capsule a day every day for the next 28 days. Visit 2 occurred fourteen days after Visit 1. At Visit 2, the remaining study pills were counted and participant dosage calendars were checked to ensure compliance with the protocol. Additional neuropsychological measures and clinical assessments were administered during this visit. Participants returned for Visit 3 fourteen days later, on the 28th day of their study participation. The pill bottle and the dosage calendar were collected from each participant. Urine and blood were again obtained. Participants also participated in similar clinical and neuropsychological testing and clinical measures that were given during visit 1. The finger tap test is used to measure motor speed and control. It is a common assessment measure administered by neuropsychologists to detect cognitive impairment. During the finger tap test, the participant is instructed to use his/her index finger to press a lever attached to a mechanical counter as many times as s/he can within the designated time period. The participant is instructed to move only their index finger, not the entire hand. The same process is completed using the index finger of the dominant and non-dominant hand. The finger tap test was administered at each of the three visits.

[2] = test system: Healthy subjects, ages 13-18; test: Ruff 2 & 7 test (visual attention); assay type: in vivo, human; conditions: for Ruff 2 & 7 Accuracy Difference Score V1 (Mean) / Ruff 2 & 7 Speed Difference Score V1 (Mean) / Ruff 2 & 7 Total Accuracy T Score V1 (Mean) / Ruff 2 & 7 Total Difference Score V1 (Mean) / Ruff 2 & 7 Total Speed T Score V1 (Mean): Visit 1; for Ruff 2 & 7 Accuracy Difference Score V3 (Mean) / Ruff 2 & 7 Speed Difference Score V3 (Mean) / Ruff 2 & 7 Total Accuracy T Score V3 (Mean) / Ruff 2 & 7 Total Difference Score V3 (Mean) / Ruff 2 & 7 Total Speed T Score V3 (Mean): Visit 3
Text: Study participants were screened by telephone prior to study enrollment. Healthy subjects, ages 13-18, with no significant medical conditions and no history of co-morbid psychiatric disorder, current Axis I or II diagnosis, or previous participation in a pharmacotherapeutic trial, were selected. Use of any psychotropic medication or any previous head injury resulting in loss of consciousness for 5 or more minutes were used as exclusion criteria. While no participant met criteria for a neuropsychiatric disorder at enrollment, clinical assessments were still completed throughout the study to evaluate changes in mood state. In addition, self-reports of sleep habits, lifestyle, and exercise routines were also administered at baseline as well as at each study visit to assess changes in health habits during study participation. Following the completion of Visit 1 assessment, participants were given their 28-day supply of citicoline (250 mg or 500 mg) or placebo, which was randomly assigned. They were instructed to take one capsule a day every day for the next 28 days. Visit 2 occurred fourteen days after Visit 1. At Visit 2, the remaining study pills were counted and participant dosage calendars were checked to ensure compliance with the protocol. Additional neuropsychological measures and clinical assessments were administered during this visit. Participants returned for Visit 3 fourteen days later, on the 28th day of their study participation. The pill bottle and the dosage calendar were collected from each participant. Urine and blood were again obtained. Participants also participated in similar clinical and neuropsychological testing and clinical measures that were given during visit 1. The Ruff 2 & 7 measures two aspects of visual attention: sustained attention and selective attention. There are a series of 20 trials involving visual searching in which the respondent detects and marks through all given stimuli the digits “2” and “7”. In the 10 Automatic Detection trials, the target digits are embedded among alphabetical letters that serve as distractors. In the 10 Controlled Search trials, the target digits are embedded among other numbers that serve as distractors. Correct hits and errors are counted for each trial and serve as the basis for scoring the test. Accuracy scores evaluate the number of targets identified in relation to the number of possible targets. The Ruff 2 & 7 was administered at all three visits.

[3] = 250 mg/day group, visit difference score V3-V1
[4] = 500 mg/day group, visit difference score V3-V1

SMILES: C[N+](C)(C)CCOP(=O)(O)OP(=O)([O-])OC[C@H]1O[C@@H](n2ccc(N)nc2=O)[C@H](O)[C@@H]1O [citicoline, Cytidine 5′-diphosphocholine]
- V3-V1 Finger Tap Test Mean Dominant Hand, Mean ([1]; 250 mg/day group): 4.87
- V3-V1 Finger Tap Test Mean Non-Dominant Hand, Mean ([1]; 250 mg/day group): 2.49
- Finger Tap Test Mean Dominant Hand V3, Mean ([1]; 250 mg/day group): 51.59
- Finger Tap Test Mean Non-Dominant Hand V3, Mean ([1]; 250 mg/day group): 47.01
- Finger Tap Test Mean Dominant Hand, Mean ([1]; V1 (baseline)): 46.72
- Finger Tap Test Mean Non-Dominant Hand, Mean ([1]; V1 (baseline)): 44.52
- Finger Tap Test Mean Dominant Hand, Mean ([1]; V3 (day 28)): 51.59
- Finger Tap Test Mean Non-Dominant Hand, Mean ([1]; V3 (day 28)): 47.01
- Finger Tap Test Mean Dominant Hand V1, Mean ([1]; 500 mg/day group, Visit 1): 49.44
- Finger Tap Test Mean Non-Dominant Hand V1, Mean ([1]; 500 mg/day group, Visit 1): 44.89
- V3-V1 Finger Tap Test Mean Dominant Hand, Mean ([1]; 500 mg/day group): 2.61
- V3-V1 Finger Tap Test Mean Non-Dominant Hand, Mean ([1]; 500 mg/day group): 2.21
- Finger Tap Test Mean Dominant Hand V3, Mean ([1]; 500 mg/day group): 52.05
- Finger Tap Test Mean Non-Dominant Hand V3, Mean ([1]; 500 mg/day group): 47.10
- Ruff 2 & 7 Accuracy Difference Score V1 (Mean) ([2]; 250 mg/day group): 0.02
- Ruff 2 & 7 Speed Difference Score V1 (Mean) ([2]; 250 mg/day group): 0.01
- Ruff 2 & 7 Total Accuracy T Score V1 (Mean) ([2]; 250 mg/day group): 47.41
- Ruff 2 & 7 Total Difference Score V1 (Mean) ([2]; 250 mg/day group): 0.01
- Ruff 2 & 7 Total Speed T Score V1 (Mean) ([2]; 250 mg/day group): 45.74
- Ruff 2 & 7 Accuracy Difference Score V3 (Mean) ([2]; 250 mg/day group): 0.01
- Ruff 2 & 7 Speed Difference Score V3 (Mean) ([2]; 250 mg/day group): 0.01
- Ruff 2 & 7 Total Accuracy T Score V3 (Mean) ([2]; 250 mg/day group): 53.00
- Ruff 2 & 7 Total Difference Score V3 (Mean) ([2]; 250 mg/day group): 0.02
- Ruff 2 & 7 Total Speed T Score V3 (Mean) ([2]; 250 mg/day group): 54.85
- Ruff 2 & 7 Speed Difference Score V3-V1 (Mean) [2, 3]: 0.00
- Ruff 2 & 7 Total Accuracy T Score V3-V1 (Mean) [2, 3]: 5.59
- Ruff 2 & 7 Total Difference Score V3-V1 (Mean) [2, 3]: 0.00
- Ruff 2 & 7 Total Speed T Score V3-V1 (Mean) [2, 3]: 9.11
- Ruff 2 & 7 Accuracy Difference Score V1 (Mean) ([2]; 500 mg/day group): 0.02
- Ruff 2 & 7 Speed Difference Score V1 (Mean) ([2]; 500 mg/day group): 0.01
- Ruff 2 & 7 Total Accuracy T Score V1 (Mean) ([2]; 500 mg/day group): 42.71
- Ruff 2 & 7 Total Difference Score V1 (Mean) ([2]; 500 mg/day group): 0.02
- Ruff 2 & 7 Total Speed T Score V1 (Mean) ([2]; 500 mg/day group): 44.33
- Ruff 2 & 7 Accuracy Difference Score V3 (Mean) ([2]; 500 mg/day group): 0.00
- Ruff 2 & 7 Speed Difference Score V3 (Mean) ([2]; 500 mg/day group): 0.02
- Ruff 2 & 7 Total Accuracy T Score V3 (Mean) ([2]; 500 mg/day group): 49.88
- Ruff 2 & 7 Total Difference Score V3 (Mean) ([2]; 500 mg/day group): 0.02
- Ruff 2 & 7 Total Speed T Score V3 (Mean) ([2]; 500 mg/day group): 53.75
- Ruff 2 & 7 Accuracy Difference Score V3-V1 (Mean) [2, 4]: -0.02
- Ruff 2 & 7 Speed Difference Score V3-V1 (Mean) [2, 4]: 0.01
- Ruff 2 & 7 Total Accuracy T Score V3-V1 (Mean) [2, 4]: 7.17
- Ruff 2 & 7 Total Difference Score V3-V1 (Mean) [2, 4]: 0.01
- Ruff 2 & 7 Total Speed T Score V3-V1 (Mean) [2, 4]: 9.42
